The target of test [1] is T1, Gastrin/cholecystokinin type B receptor (Mus musculus, UniProt P56481).
T1 sequence (P56481 whole entry): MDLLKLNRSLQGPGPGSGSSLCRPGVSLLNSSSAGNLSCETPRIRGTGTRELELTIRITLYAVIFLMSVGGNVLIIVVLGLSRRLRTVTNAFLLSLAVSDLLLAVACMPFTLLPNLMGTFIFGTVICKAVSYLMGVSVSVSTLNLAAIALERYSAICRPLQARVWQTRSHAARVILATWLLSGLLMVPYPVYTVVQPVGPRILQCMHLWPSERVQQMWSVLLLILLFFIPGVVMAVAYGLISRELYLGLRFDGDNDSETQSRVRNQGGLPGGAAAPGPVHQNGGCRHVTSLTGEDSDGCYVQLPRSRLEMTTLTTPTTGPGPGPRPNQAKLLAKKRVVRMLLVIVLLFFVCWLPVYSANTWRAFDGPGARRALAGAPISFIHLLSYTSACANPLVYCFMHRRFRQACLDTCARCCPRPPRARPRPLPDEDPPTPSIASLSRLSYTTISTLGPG
In words: In vitro inhibitory activity against Cholecystokinin type B receptor using [125I]BH-CCK-8S as radioligand in mouse cortical membranes. Format: cell membranes.

The target in test [2] is T2, Cholecystokinin receptor type A (Cavia porcellus, UniProt Q63931).
T2 sequence (Q63931 whole entry): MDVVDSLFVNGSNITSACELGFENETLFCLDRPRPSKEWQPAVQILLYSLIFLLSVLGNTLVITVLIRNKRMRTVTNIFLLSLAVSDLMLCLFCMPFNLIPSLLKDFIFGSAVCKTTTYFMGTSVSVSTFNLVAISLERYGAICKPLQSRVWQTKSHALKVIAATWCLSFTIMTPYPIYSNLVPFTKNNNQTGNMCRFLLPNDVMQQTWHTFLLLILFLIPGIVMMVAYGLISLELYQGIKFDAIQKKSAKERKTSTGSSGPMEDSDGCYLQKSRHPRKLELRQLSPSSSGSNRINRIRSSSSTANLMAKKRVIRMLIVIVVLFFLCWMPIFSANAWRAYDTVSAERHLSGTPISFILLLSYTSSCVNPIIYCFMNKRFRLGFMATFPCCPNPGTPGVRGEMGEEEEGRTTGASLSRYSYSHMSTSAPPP
Put plainly: In vitro inhibitory activity against Cholecystokinin type A receptor using [125I]BH-CCK-8S as radioligand in guinea pig pancreatic cells.

The target in test [3] is T3, Gastrin/cholecystokinin type B receptor (Rattus norvegicus) (UniProt P30553).
T3 sequence (whole entry): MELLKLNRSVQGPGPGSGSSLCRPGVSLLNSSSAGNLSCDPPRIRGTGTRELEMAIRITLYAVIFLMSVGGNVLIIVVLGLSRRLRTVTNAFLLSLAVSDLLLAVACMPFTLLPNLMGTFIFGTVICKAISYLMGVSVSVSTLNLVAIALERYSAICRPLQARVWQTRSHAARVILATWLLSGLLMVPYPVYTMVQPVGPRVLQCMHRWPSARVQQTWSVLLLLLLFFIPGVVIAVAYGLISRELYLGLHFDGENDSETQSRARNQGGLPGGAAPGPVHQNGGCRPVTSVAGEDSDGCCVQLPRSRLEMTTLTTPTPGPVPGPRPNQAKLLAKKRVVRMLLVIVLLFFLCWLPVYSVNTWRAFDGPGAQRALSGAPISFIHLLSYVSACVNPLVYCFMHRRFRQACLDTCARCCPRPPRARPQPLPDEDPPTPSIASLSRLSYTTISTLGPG
In words: Intravenous activity against Cholecystokinin type B receptor in Gosh and Schild rat at a dsoe of 0.025 umol/kg (in vivo). Format: functional, organism-based.

The subject of a further test is Canis familiaris. In words: Intravenous activity against CCKB/Gastrin antagonist in gastric fistula dog at dose 0.1 uM/kg (in vivo). Format: functional, Canis lupus familiaris, Stomach.

`O=C(O)c1cc2ccccc2cc1C(=O)NCC12CC3CC(CC(C3)C1)C2`: the figures for the inhibition constant Ki in test [1] and in test [2] were 2.88 µM and 11.7 µM, respectively.
Consider `O=C(NCC1CCCCCC1)c1cc2nc[nH]c2cc1C(=O)N[C@@H](Cc1ccccc1F)C(=O)Nc1cc(-c2nn[nH]n2)cc(-c2nn[nH]n2)c1`, for which the Ki in test [1] was 0.00389 µM; in test [2] it was 0.912 µM.
As for `O=C(O)c1cc(NC(=O)[C@H](Cc2ccccc2)NC(=O)c2cc3ccoc3cc2C(=O)NCC23CC4CC(CC(C4)C2)C3)cc(C(=O)O)c1`, the Ki was 0.00537 µM in test [1] and 3.8 µM in test [2].
`O=C(O)c1cc(NC(=O)[C@H](Cc2ccccc2)NC(=O)c2cc3[nH]ccc3cc2C(=O)NCC23CC4CC(CC(C4)C2)C3)cc(C(=O)O)c1`: the inhibition constant (Ki) in test [1] was 0.0135 µM; in test [2], 3.39 µM.
Turning to `O=C(O)c1cc(NC(=O)[C@H](Cc2ccccc2F)NC(=O)c2cc3[nH]cnc3cc2C(=O)NCC2CCCCCC2)cc(C(=O)O)c1`, the values for the Ki in test [1] and in test [2] were 0.00759 µM and 7.41 µM, respectively.
For the molecule `O=C(NCC12CC3CC(CC(C3)C1)C2)C1C2c3ccccc3C(c3ccccc32)C1C(=O)N1CCC[C@@H]1C(=O)O` (stereo partly drawn), the inhibition constant (Ki) in test [1] was 0.891 µM; in test [2], 8.13 µM.
`O=C(O)C1C2c3ccccc3C(c3ccccc32)C1C(=O)NCC12CC3CC(CC(C3)C1)C2` (stereo not drawn): the values for the inhibitory constant (Ki) in test [1] and in test [2] were 0.537 µM and 8.32 µM, respectively.
Consider `O=C(O)c1cc(NC(=O)[C@H](Cc2ccccc2)NC(=O)c2cc3ccccc3cc2C(=O)NCC23CC4CC(CC(C4)C2)C3)cc(C(=O)O)c1`, for which the Ki is 0.0132 µM in test [1] and 0.851 µM in test [2].
In the case of `O=C(NCC12CC3CC(CC(C3)C1)C2)c1cc2[nH]ccc2cc1C(=O)N[C@@H](Cc1ccccc1)C(=O)Nc1cc(-c2nn[nH]n2)cc(-c2nn[nH]n2)c1`, the Ki in test [1] is 0.0012 µM; in test [2], 1.29 µM.
With `O=C(NCC12CC3CC(CC(C3)C1)C2)c1cc2ccccc2cc1C(=O)N1CCC[C@@H]1C(=O)O`, the Ki is 0.339 µM in test [1] and 3.55 µM in test [2].
On the same counts, the results for `O=C(O)c1cc(NC(=O)[C@H](Cc2ccccc2)NC(=O)c2cc3cc[nH]c3cc2C(=O)NCC2CCCCCC2)cc(C(=O)O)c1` are 0.0151 µM and 3.16 µM.
On to `O=C(O)c1cc(NC(=O)[C@H](Cc2ccccc2)NC(=O)c2cc3[nH]cnc3cc2C(=O)NCC23CC4CC(CC(C4)C2)C3)cc(C(=O)O)c1`, for which the Ki is 0.00525 µM in test [1] and 1.48 µM in test [2]. The molecule also yielded an inhibition in test [3] of 61%.
As for `O=C(O)c1cc(NC(=O)[C@H](Cc2ccc(O)cc2)NC(=O)c2cc3[nH]cnc3cc2C(=O)NCC23CC4CC(CC(C4)C2)C3)cc(C(=O)O)c1`, the affinity in test [2] corresponds to a Ki of 2.82 µM.
For the molecule `O=C(O)c1cc(NC(=O)[C@H](Cc2ccccc2)NC(=O)c2cc3ccsc3cc2C(=O)NCC23CC4CC(CC(C4)C2)C3)cc(C(=O)O)c1`, the Ki is 0.00123 µM in test [1] and 2.24 µM in test [2].
Turning to `O=C(O)c1cc(NC(=O)[C@H](Cc2ccccc2F)NC(=O)c2cc3[nH]cnc3cc2C(=O)NCC23CC4CC(CC(C4)C2)C3)cc(C(=O)O)c1`, the Ki in test [1] was 0.00447 µM; in test [2], 2.57 µM.
On to `O=C(O)c1cc(NC(=O)[C@H](Cc2ccccc2)NC(=O)c2cc3cc[nH]c3cc2C(=O)NCC23CC4CC(CC(C4)C2)C3)cc(C(=O)O)c1`, for which, in the test on Canis familiaris, the Inhibition came to 79%. Further, the results for the Ki in test [1] and in test [2] were 0.0011 µM and 3.63 µM, respectively. This molecule gave an inhibition in test [3] of 97%.
On to `O=C(O)c1cc(NC(=O)[C@H](Cc2ccccc2F)NC(=O)c2cc3cc[nH]c3cc2C(=O)NCC23CC4CC(CC(C4)C2)C3)cc(C(=O)O)c1`, for which the Ki in test [1] is 0.000741 µM; in test [2], 3.31 µM.
The matching figures for `O=C(NCC12CC3CC(CC(C3)C1)C2)c1cc2nc[nH]c2cc1C(=O)N[C@@H](Cc1ccccc1)C(=O)Nc1cc(-c2nn[nH]n2)cc(-c2nn[nH]n2)c1`: 0.00407 µM and 0.891 µM.

The values are drawn from ChEMBL document CHEMBL1129562, “Non-peptide cholecystokinin-B/gastrin receptor antagonists based on bicyclic, heteroaromatic skeletons” (J Med Chem, 1996).
